Source: US12344623B2, “Thiazolopyridine derivatives as adenosine receptor antagonists” (Merck Patent GmbH, priority 2019, dated 2025)
Like-named read-outs stand apart in the source and are kept apart here.

Legend:
Format in all cases: cell-based
human A2A receptor [1] = molecular target: T1, human A2A receptor (Homo sapiens, UniProt P29274); assay: Human T cells, endogenous A2A receptor, cAMP, agonist NECA
Description: The endogenous functional activity of the Gs-coupled human A2A receptor was measured in T cells, where this receptor is highly expressed. Determination of receptor activity was done by quantification of cAMP, which is a second messenger for adenosine receptors.
In short, human pan T cells were isolated from human PBMC (MACS Pan T Cell Isolation Kit, Miltenyi Biotec) that have been derived from fresh whole blood. The T cells were seeded in 384-well microtiter plates and treated with test compounds. […] Finally, HTRF reagents (cAMP Femto Kit, CisBio) were added to the wells, and after 1 h cellular cAMP levels were determined using the ENVISION (Perkin Elmer) plate reader.
The obtained raw data were normalized against the inhibitor control and the neutral control (DMSO) and the normalized data were fitted using Genedata Screener software.

human A1 receptor = molecular target: T2, human A1 receptor (Homo sapiens, UniProt P30542); assay: Functional A1 receptor activity, recombinant CHO cells, cAMP (HTRF), forskolin, agonist CPA; details: recombinant CHO cells, forskolin, agonist CPA; read-out: Functional A1 receptor activity, CHO, cAMP, IC50
T2 construct: expressed in transfected cells; host or cells: CHO
T2 sequence (P30542 1-326): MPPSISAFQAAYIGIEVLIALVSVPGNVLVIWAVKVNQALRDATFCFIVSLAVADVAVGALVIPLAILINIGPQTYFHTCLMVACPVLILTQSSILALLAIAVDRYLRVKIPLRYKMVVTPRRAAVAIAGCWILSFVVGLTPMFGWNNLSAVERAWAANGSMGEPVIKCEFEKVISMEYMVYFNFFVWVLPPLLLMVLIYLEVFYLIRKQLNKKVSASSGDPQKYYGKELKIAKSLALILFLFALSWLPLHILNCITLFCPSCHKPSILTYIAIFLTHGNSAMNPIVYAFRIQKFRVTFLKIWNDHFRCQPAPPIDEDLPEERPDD
How it was run: (§1)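 Normalized HTRF cAMP signals (inhibitor and DMSO controls as references) were curve-fitted; assays used forskolin-stimulated CHO cells with A1 or A3, agonist CPA or IB-MECA respectively, 30 min compound incubation.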

human A3 receptor = molecular target: T3, human A3 receptor (Homo sapiens, UniProt P0DMS8); assay: Functional A3 receptor activity, recombinant CHO cells, cAMP (HTRF), forskolin, agonist IB-MECA; details: recombinant CHO cells, forskolin, agonist IB-MECA; read-out: Functional A3 receptor activity, CHO, cAMP, IC50
T3 construct: expressed in transfected cells; host or cells: CHO
T3 sequence (P0DMS8 1-318): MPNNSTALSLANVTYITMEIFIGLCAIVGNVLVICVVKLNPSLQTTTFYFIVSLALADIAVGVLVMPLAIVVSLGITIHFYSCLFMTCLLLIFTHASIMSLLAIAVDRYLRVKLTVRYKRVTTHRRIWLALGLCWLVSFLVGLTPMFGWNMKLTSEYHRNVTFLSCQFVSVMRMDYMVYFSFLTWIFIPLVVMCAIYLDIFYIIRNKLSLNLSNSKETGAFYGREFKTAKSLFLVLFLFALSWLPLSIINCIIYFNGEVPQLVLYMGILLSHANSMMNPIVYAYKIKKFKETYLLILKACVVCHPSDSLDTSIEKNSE
How it was run: as §1

human A2B receptor = molecular target: T4, human A2B receptor (Homo sapiens, UniProt P29275); assay: Functional A2B receptor activity, recombinant HEK293 cells, cAMP (HTRF), agonist NECA
T4 construct: expressed in transfected cells; host or cells: HEK293
T4 sequence (P29275 1-332): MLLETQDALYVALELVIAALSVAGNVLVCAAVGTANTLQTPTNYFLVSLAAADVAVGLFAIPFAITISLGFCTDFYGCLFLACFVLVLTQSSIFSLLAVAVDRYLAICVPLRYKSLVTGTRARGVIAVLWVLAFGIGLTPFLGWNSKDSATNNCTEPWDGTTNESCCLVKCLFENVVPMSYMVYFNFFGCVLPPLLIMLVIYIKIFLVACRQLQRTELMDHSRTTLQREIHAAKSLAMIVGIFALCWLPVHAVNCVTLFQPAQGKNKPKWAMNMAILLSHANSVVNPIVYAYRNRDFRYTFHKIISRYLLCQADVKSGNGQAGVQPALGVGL
How it was run: (§2)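 Intracellular cAMP, the adenosine receptor second messenger, is measured by HTRF following 30 min co-incubation with forskolin, agonist and test compound. Normalization uses DMSO as the neutral control and an inhibitor as the reference control. Fitted curves yield the values.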

human A2A receptor [2] = molecular target: T1, human A2A receptor; assay: Functional A2A receptor activity, recombinant HEK293 cells, cAMP (HTRF), agonist NECA; parameters: expressed in transfected cells; host or cells: HEK293
How it was run: as §2

[3] = read-out: hTcell data, cAMP, IC50
[4] = read-out: Functional A2B receptor activity, HEK293, cAMP, IC50
[5] = read-out: Functional A2A receptor activity, HEK293, cAMP, IC50

T1 sequence (P29274 whole entry): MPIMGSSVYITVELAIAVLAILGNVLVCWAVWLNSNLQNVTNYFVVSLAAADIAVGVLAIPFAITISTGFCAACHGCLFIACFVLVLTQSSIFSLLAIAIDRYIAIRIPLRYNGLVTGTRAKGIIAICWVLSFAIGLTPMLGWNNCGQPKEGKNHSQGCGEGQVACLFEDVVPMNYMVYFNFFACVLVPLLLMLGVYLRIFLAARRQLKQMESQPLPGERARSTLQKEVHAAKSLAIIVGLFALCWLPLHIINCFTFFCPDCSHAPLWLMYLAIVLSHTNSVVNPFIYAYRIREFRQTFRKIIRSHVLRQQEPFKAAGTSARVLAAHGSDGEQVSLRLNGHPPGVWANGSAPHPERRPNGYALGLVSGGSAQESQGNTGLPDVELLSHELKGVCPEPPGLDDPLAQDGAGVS

Row | Structure (SMILES) | IC50 (human A2A receptor [1]; [3]) [nM] | IC50 (human A1 receptor) [nM] | IC50 (human A3 receptor) [nM] | IC50 (human A2B receptor; [4]) [nM] | IC50 (human A2A receptor [2]; [5]) [nM] | IC50 (human A2A receptor [1]) [nM] | IC50 (human A2B receptor) [nM] | IC50 (human A2A receptor [2]) [nM]
1 | COc1ccc(N2CCOCC2)c2sc(NC(=O)N3CCC4(CCCO4)CC3)nc12 [drawing 219] | < 1000 |  |  |  |  |  |  | 
2 | COc1cnc(N2CCOCC2)c2sc(NC(=O)N3CCC4(CCN(C)C4=O)CC3)nc12 [drawing 215] | < 1000 |  |  |  |  |  |  | 
3 | COc1ncc(C2=CCOCC2)c2sc(NC(=O)c3ccc(C(=O)O)cc3)nc12 [Compound 72, 4-{[7-(3,6-dihydro-2H-pyran-4-yl)-4-methoxy-[1,3]thiazolo[4,5-c]pyridin-2-yl]carbamoyl}benzoic acid] | < 100 | < 1000 | > 1000 | < 10 | < 10 |  |  | 
4 | COc1cnc(N2CCOCC2)c2sc(NC(=O)N3CCC(CO)CC3)nc12 [drawing 217] | < 1000 |  |  |  |  |  |  | 
5 | COc1ncc(-c2cnn(Cc3ccccn3)c2)c2sc(NC(=O)N3CCC4(CCOCC4)C3)nc12 [Compound 69, 8-Oxa-2-aza-spiro[4.5]decane-2-carboxylic acid [4-methoxy-7-(1-pyridin-2-ylmethyl-1H-pyrazol-4-yl)-thiazolo[4,5-c]pyridin-2-yl]-amide] | < 10 | < 100 | < 1000 | < 10 | < 10 |  |  | 
6 | COc1ncc(-c2cnn(CC(F)F)c2)c2sc(NC(=O)N3CCC4(CCOCC4)C3)nc12 [Compound 74, 8-Oxa-2-aza-spiro[4.5]decane-2-carboxylic acid {7-[1-(2,2-difluoro-ethyl)-1H-pyrazol-4-yl]-4-methoxy-thiazolo[4,5-c]pyridin-2-yl}-amide] | < 100 | < 1000 | > 1000 | < 100 | < 10 |  |  | 
7 | COC(=O)N(C)Cc1ccc(C(=O)Nc2nc3c(OC)ncc(-c4ccccc4)c3s2)cc1 [Compound 97, [4-(4-Methoxy-7-phenyl-thiazolo[4,5-c]pyridin-2-ylcarbamoyl)-benzyl]-methyl-carbamic acid methyl ester] | < 100 | > 1000 | > 1000 | < 100 | < 10 |  |  | 
8 | COc1ccc(N2CCOCC2)c2sc(NC(=O)N3CCCCC3)nc12 [drawing 221] | < 1000 |  |  |  |  |  |  | 
9 | COc1ccc(-c2ccccc2)c2sc(NC(=O)NCCN3CCCCC3)nc12 [drawing 216] | < 1000 |  |  |  |  |  |  | 
10 | [2H]C([2H])([2H])Oc1ncc(C2=CCOCC2)c2sc(NC(=O)N3CC[C@]4(CCCOC4)C3)nc12 [Compound 173, (5R)-N-[7-(3,6-dihydro-2H-pyran-4-yl)-4-(2H3)methoxy-[1,3]thiazolo[4,5-c]pyridin-2-yl]-7-oxa-2-azaspiro[4.5]decane-2-carboxamide] | < 10 | < 1000 | > 1000 | < 10 | < 10 |  |  | 
11 | COc1cnc(N2CCOCC2)c2sc(NC(=O)N3CCOCC3)nc12 [drawing 223] | < 1000 |  |  |  |  |  |  | 
12 | COc1ncc(C2=CCOCC2)c2sc(NC(=O)c3c[nH]c(-c4ccncc4)n3)nc12 [Compound 165, 2-Pyridin-4-yl-1H-imidazole-4-carboxylic acid [7-(3,6-dihydro-2H-pyran-4-yl)-4-methoxy-thiazolo[4,5-c]pyridin-2-yl]-amide] | < 10 |  | > 1000 | < 10 | < 10 |  |  | 
13 | COc1cnc(N2CCOCC2)c2sc(NC(=O)N3CCC(O)CC3)nc12 | < 1000 |  |  |  |  |  |  | 
14 | COc1ncc(C2=CCOCC2)c2sc(NC(=O)c3cnc(C(=O)O)[nH]3)nc12 [Compound 168, 5-[7-(3,6-Dihydro-2H-pyran-4-yl)-4-methoxy-thiazolo[4,5-c]pyridin-2-ylcarbamoyl]-1H-imidazole-2-carboxylic acid] | < 100 |  | > 1000 | < 100 | < 10 |  |  | 
15 | COc1ncc(C2=CCOCC2)c2sc(NC(=O)c3ccc(C(=O)N4CCN(C)CC4)cc3)nc12 [Compound 125, N-[7-(3,6-Dihydro-2H-pyran-4-yl)-4-methoxy-thiazolo[4,5-c]pyridin-2-yl]-4-(4-methyl-piperazine-1-carbonyl)-benzamide] |  | < 1000 | > 1000 | < 10 | < 10 |  |  | 
16 | COc1ncc(C2=CCOCC2)c2sc(NC(=O)Nc3ccc(N4CCOC4=O)cc3)nc12 [Compound 95, 3-[7-(3,6-dihydro-2H-pyran-4-yl)-4-methoxy-[1,3]thiazolo[4,5-c]pyridin-2-yl]-1-[4-(2-oxo-1,3-oxazolidin-3-yl)phenyl]urea] |  | < 1000 | < 1000 | < 10 | < 10 |  |  | 

More lines, now with the values ahead:

Row | IC50 (human A2A receptor [1]; [3]) [nM] | IC50 (human A1 receptor) [nM] | IC50 (human A3 receptor) [nM] | IC50 (human A2B receptor; [4]) [nM] | IC50 (human A2A receptor [2]; [5]) [nM] | IC50 (human A2A receptor [1]) [nM] | IC50 (human A2B receptor) [nM] | IC50 (human A2A receptor [2]) [nM] | Structure (SMILES)
17 | < 1000 |  |  |  |  |  |  |  | COc1cnc(N2CCOCC2)c2sc(NC(=O)N3CCC4(CCCO4)CC3)nc12 [drawing 218]
18 | < 10 | > 1000 | > 1000 | < 100 | < 10 |  |  |  | COc1nc(F)c(C2CCOCC2)c2sc(NC(=O)N3CC[C@@]4(CCOC4)C3)nc12 [Compound 37, (R)-2-Oxa-7-aza-spiro[4.4]nonane-7-carboxylic acid [6-fluoro-4-methoxy-7-(tetrahydro-pyran-4-yl)-thiazolo[4,5-c]pyridin-2-yl]-amide]
19 |  | > 1000 | > 1000 |  |  | < 10 | < 100 | < 10 | [2H]C([2H])([2H])Oc1ncc(C2=CCOCC2)c2sc(NC(=O)N3CC[C@@]4(CCCOC4)C3)nc12 [Compound 174, (5S)-N-[7-(3,6-dihydro-2H-pyran-4-yl)-4-(2H3)methoxy-[1,3]thiazolo[4,5-c]pyridin-2-yl]-7-oxa-2-azaspiro[4.5]decane-2-carboxamide]
20 | < 10 | < 100 | > 1000 | < 10 | < 10 |  |  |  | COc1ncc(C2=CCOCC2)c2sc(NC(=O)c3c[nH]cn3)nc12 [Compound 65, 1H-Imidazole-4-carboxylic acid [7-(3,6-dihydro-2H-pyran-4-yl)-4-methoxy-thiazolo[4,5-c]pyridin-2-yl]-amide]
21 | < 1000 |  |  |  |  |  |  |  | COc1cnc(N2CCOCC2)c2sc(NC(=O)N3CCCCC3)nc12 [drawing 222]
22 |  | > 1000 | > 1000 | < 100 | < 10 |  |  |  | COc1ncc(-c2cc(O)ccc2F)c2sc(NC(=O)N3CCC4(CCOCC4)C3)nc12 [Compound 150, 8-Oxa-2-aza-spiro[4.5]decane-2-carboxylic acid [7-(2-fluoro-5-hydroxy-phenyl)-4-methoxy-thiazolo[4,5-c]pyridin-2-yl]-amide]
23 |  | < 1000 | > 1000 | < 10 | < 10 |  |  |  | COc1ncc(C2=CCOCC2)c2sc(NC(=O)c3cnn(-c4ccncc4)c3)nc12 [Compound 157, 1-Pyridin-4-yl-1H-pyrazole-4-carboxylic acid [7-(3,6-dihydro-2H-pyran-4-yl)-4-methoxy-thiazolo[4,5-c]pyridin-2-yl]-amide]
24 | < 10 |  | > 1000 | < 10 | < 10 |  |  |  | COc1ncc(-c2cnn(Cc3cccnc3)c2)c2sc(NC(=O)N3CCC4(CCOCC4)C3)nc12 [Compound 68, 8-Oxa-2-aza-spiro[4.5]decane-2-carboxylic acid [4-methoxy-7-(1-pyridin-3-ylmethyl-1H-pyrazol-4-yl)-thiazolo[4,5-c]pyridin-2-yl]-amide]
